This note sets out measurements from publication PMC3793977, “High-Throughput Screening (HTS) and Hit Validation to Identify Small Molecule Inhibitors with Activity against NS3/4A proteases from Multiple Hepatitis C Virus Genotypes” (PLoS ONE, 2013).

Where “and” joins values, the source holds several entries; their conditions need not be identical. Identical values can stand only once.

Common to all, as to assay type: biochemical
One assay deals with T1, full-length NS3/4A (Hepatitis C virus genotype 1b, UniProt Q9WMX2).
T1 construct: wild-type HCV NS3 (HCV polyprotein residues 1027–1657); His-tag (N); made in house
As to the kind of experiment: Type (mechanism) of enzyme inhibition, kinetic analysis. On the procedure:
Full-length NS3/4A activity was monitored in the same way as the primary screening with varying concentration of both inhibitor compounds and substrate (0–8 µM). The concentration of compounds varied from 0 to 20 µM at 1.5-fold dilution factor.

In assay [1] the target is T2, NS3/4A protease genotype 1a (Hepatitis C virus genotype 1a, UniProt P27958).
T2 construct: against the NS3/4A protease domains from three additional HCV genotypes (1a, 2a, and 4d); purchased Anaspec
As to the kind of experiment: Inhibition assay with NS3/4A from genotype 1a. To be noted: IC50 NS3/4A genotype 1a. The procedure: (§1) The inhibitory activity of the final hit compounds from HTS were tested against three other HCV genotypes (1a, 2a, and 4d), along with a control (genotype 1b) and five NS3 drug-resistant mutants. Eight full-length NS3 mutants (V36M, R155K, A156T, A156S, 156V, V36A, T54A, and R155T) were generated by mutagenesis and purified, and the three HCV NS3/4A protease genotypes were purchased from Anaspec. Unfortunately the enzyme activities of the three mutants V36A, T54A, and R155T were much less than that of the rest of the mutants and were insufficient for testing, therefore mutant studies were done with the five active mutants. Continuous kinetic assays were performed against all hit compounds in the same way as the wild-type NS3/4A. As a control, full-length NS3/4A (genotype 1b) was tested under the same conditions for direct comparison for each plate.

In assay [2] the target is T3, NS3/4A protease genotype 2a (Hepatitis C virus genotype 2a, UniProt Q99IB8).
T3 construct: against the NS3/4A protease domains from three additional HCV genotypes (1a, 2a, and 4d); purchased Anaspec
Briefly: Inhibition assay with NS3/4A from genotype 2a. The procedure: as §1

For assay [3], the target named is NS3/4A protease genotype 4d (Hepatitis C virus subtype 4d, UniProt Q1ZZ56). As to the kind of experiment: Inhibition assay with NS3/4A from genotype 4d. On the procedure:
as §1

Assay [4] deals with T4, full-length NS3/4A genotype 1b mutant A156T (Hepatitis C virus genotype 1b, UniProt Q9WMX2, A1182T).
T4 construct: wild-type HCV NS3 (HCV polyprotein residues 1027–1657); His-tag (N); made in house
As to the kind of experiment: Inhibition assay with drug-resistant mutant A156T. The procedure:
(§2) The full-length genes of wild-type HCV NS3 (HCV polyprotein residues 1027–1657) with a his-tag at the N-terminus and NS4A (residues 1658–1711) with no tag were cloned, co-expressed, and purified as described. Eight NS3 drug resistant mutants (V36M, V36A, T54A, R155K, R155T, A156T, A156S, and 156V) were generated by mutagenesis using full-length, wild-type NS3-containing recombinant plasmid (pETDuet-1/FL NS3/4A) as a template. The over-expression and purification of all mutants were performed by the same method as the wild-type with minor modifications.
as §1, with “As a control, full-length NS3/4A (genotype 1b) was tested under the same conditions for direct comparison for each plate.” left out

Assay [5] concerns the target T5, full-length NS3/4A genotype 1b mutant A156S (Hepatitis C virus genotype 1b, UniProt Q9WMX2, A1182S).
T5 construct: wild-type HCV NS3 (HCV polyprotein residues 1027–1657); His-tag (N); made in house
Briefly: Inhibition assay with drug-resistant mutant A156S. On the procedure: as §2
as §1, with “As a control, full-length NS3/4A (genotype 1b) was tested under the same conditions for direct comparison for each plate.” left out

Assay [6] has as its target T6, full-length NS3/4A genotype 1b mutant R155K (Hepatitis C virus genotype 1b, UniProt Q9WMX2, R1181K).
T6 construct: wild-type HCV NS3 (HCV polyprotein residues 1027–1657); His-tag (N); made in house
Briefly: Inhibition assay with drug-resistant mutant R155K. The procedure:
as §2
as §1, with “As a control, full-length NS3/4A (genotype 1b) was tested under the same conditions for direct comparison for each plate.” left out

Assay [7] concerns the target T7, full-length NS3/4A genotype 1b mutant V36M (Hepatitis C virus genotype 1b, UniProt Q9WMX2, V1062M).
T7 construct: wild-type HCV NS3 (HCV polyprotein residues 1027–1657); His-tag (N); made in house
Briefly: Inhibition assay with drug-resistant mutant V36M. The note with it: genotype 1b full-length mutant. The procedure: as §2
as §1, with “As a control, full-length NS3/4A (genotype 1b) was tested under the same conditions for direct comparison for each plate.” left out

A further assay concerns the target T8, Chymotrypsin (Homo sapiens, UniProt P17538).
T8 construct: purchased Sigma
As to the kind of experiment: Inhibitor selectivity assay, chymotrypsin (fluorometric). The procedure: To test for selectivity, two human serine proteases, Trypsin and Chymotrypsin (Sigma), were tested with the top two hit compounds from HTS using a fluorometric assay. The fluorogenic substrates used in this study were N-benzoyl-L-Arg-7-amido-4-methylcoumarin (Sigma) and N-succinyl-Ala-Ala-Phe-7-amido-4- methylcoumarin (Sigma) for trypsin and chymotrypsin, respectively. All assays were performed in 384-well black plates (Corning) in a total volume of 24 µL of PBS (pH 7.4) buffer containing 0.01% Triton, 0.1 mg/mL BSA, and 2 mM GSH in triplicate. A series of compound concentrations (0 to 200 µM final concentration at 2-fold serial dilution) in 100% DMSO was prepared in a 384-well plate. 20 µL of trypsin (0.01 mg/mL) and chymotrypsin (0.0001 mg/mL) solutions were distributed into wells, and 0.5 µL of varying concentration of compounds were added and incubated for 10 minutes. The enzyme reaction was initiated by adding 5 µL of the substrate (50 µM final concentration), and fluorescence intensity was continuously monitored at excitation/emission wavelengths of 350 nm/460 nm for 10 minutes.

Assay [8] concerns the target T9, HCV replicon cell lysate sg 2a (NS3) (Hepatitis C virus genotype 2a, UniProt Q99IB8).
T9 construct: expressed in transfected cells; host or cells: Huh7 cells stably replicating the JFH-1 subgenomic replicon; whole cell lysate
Briefly: Whole cell lysate inhibition assay, HCV subgenomic replicon 2a. The procedure: Huh7-1 cells (also known as Huh7/scr cells) were obtained from F.V. Chisari (The Scripps Research Institute, La Jolla, CA). Clone B HCV sub-genotype 1b Huh7 cells were obtained from the NIH AIDS Research and Reference Reagent Program and have been previously described. Huh7 cells stably replicating the sub-genotype 2a HCV JFH-1 replicon were generated as previously described. All cells were cultured in complete Dulbecco’s modified Eagle’s medium (DMEM) supplemented with 10% fetal bovine serum, 100 units/mL penicillin, […] streptomycin, and 2 mM L-glutamine. HCV replicon cells were maintained in 500 µg/mL Geneticin (Invitrogen). For NS3 inhibition analysis, lysates from parental Huh7 cells and HCV replicon cells were harvested on ice in pre-chilled FRET cell lysis buffer (50 mM Tris-HCl, pH 7.5; 150 mM NaCl, 2 mM EDTA, 1.25% Triton X-100). Lysates were brought to room temperature and mixed 1∶1 with 2× FRET assay buffer (100 mM Tris-HCl, pH 7.5, 300 mM NaCl, 4 mM EDTA, 2.5% Triton X-100, 10 mM GSH, and 4 µM substrate). Fluorescence intensity was continuously monitored for 1 hour, and IC50 values were determined in the same way as biochemical assays.
A general note: In antiviral work, replicon cells carry a viral genome segment that copies itself.

A word on the Ki: it is the equilibrium dissociation constant of an inhibitor or competing ligand from its target. Higher therefore signals a looser hold on the target. The term IC50 denotes the point on the concentration scale where inhibition reaches its midpoint. A lower IC50 goes with inhibition by little substance.

T8 sequence (P17538 19-263): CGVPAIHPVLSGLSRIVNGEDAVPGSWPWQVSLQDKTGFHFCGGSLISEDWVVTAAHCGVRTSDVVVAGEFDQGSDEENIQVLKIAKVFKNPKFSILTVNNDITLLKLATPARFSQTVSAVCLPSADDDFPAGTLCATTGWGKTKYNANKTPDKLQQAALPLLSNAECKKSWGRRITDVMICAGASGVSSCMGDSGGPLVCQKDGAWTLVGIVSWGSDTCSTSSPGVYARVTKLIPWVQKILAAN

Consider `Cc1cc(NC(=O)Cc2csc(NS(=O)(=O)c3ccccc3)n2)ccc1Br` [Compound 12], for which, at full-length NS3/4A (competitive model, with respect to substrate), the affinity corresponds to a Ki of 3.5 µM. Further, the mechanism of inhibition entry on full-length NS3/4A (with respect to the substrate, best fit model) is given as “competitive inhibitors”. Moreover, the IC50 was less than 20 µM in assay [1]; 12.7 ± 1.2 µM in assay [2] (IC50 Purified NS3/4A Sub-genotype 2a, genotype 2a); less than 20 µM in [3]; not above 20 µM in [4]; not above 20 µM in assay [5]; not above 20 µM in assay [6]. For the same compound, the IC50 is not above 20 µM in [7]; more than 100 µM at Chymotrypsin (human chymotrypsin); < 120 µM and 115 µM in assay [8] (whole cell lysate, subgenomic replicon 2a). The “fold less effective against genotype 2a than 1b in the biochemical assay” value in assay [2] (purified enzymes) is approximately 6 fold. On Chymotrypsin (100 µM compound, read-out: Chymotrypsin % Inh at 100 µM), the inhibition at 100 µM came to 19%. In assay [8] (sg2a lysate compared to purified enzyme), the “fold increase of IC50, whole cell lysate 2a vs biochemical assay” value was 10–20 fold.
